Experimental data taken from patent publication US6358885B1, “Substituted phenylheterocyclic herbicides” (Mississippi State University, priority 1992, dated 2002).

Tests used:
Assay in all cases: Test B preemergence/postemergence greenhouse plant response rating 0 to 10
barley = type: in vivo, Hordeum vulgare; details: for Plant response rating, Barley: 0 to 10 scale
Outline: (§1)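 Test chemicals, dissolved in a non-phytotoxic solvent, were applied to soil at planting and, at the same time, over foliage of seedlings at the one to four leaf stage.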

barnyardgrass = type: in vivo, Echinochloa crus-galli; details: for Plant response rating, Barnyardgrass: 0 to 10 scale
Outline: as §1

blackgrass = type: in vivo, Alopecurus myosuroides; details: for Plant response rating, Blackgrass: 0 to 10 scale
Outline: as §1

chickweed = type: in vivo, Stellaria media; details: for Plant response rating, Chickweed: 0 to 10 scale
Outline: as §1

corn = type: in vivo, Zea mays; details: for Plant response rating, Corn: 0 to 10 scale
Outline: as §1

sorghum = type: in vivo, Sorghum bicolor; details: 0 to 10 scale
Outline: as §1

sugar beet = type: in vivo, Beta vulgaris; details: 0 to 10 scale
Outline: as §1

velvetleaf = type: in vivo, Abutilon theophrasti; details: 0 to 10 scale
Outline: as §1

purple nutsedge = type: in vivo, Cyperus rotundus; details: 0 to 10 scale
Outline: as §1

CC(C)Oc1cc(-c2nn3c(c2Cl)CCCC3)c(F)cc1Cl [Compound 21]
Plant response rating (0 to 10 scale), Barley (barley; POSTEMERGENCE, Rate 50 g/ha): 6 | Plant response rating, Barley (barley; POSTEMERGENCE, Rate 200 g/ha): 4 | Plant response rating, Barley (barley; PREEMERGENCE, Rate 50 g/ha): 0 | Plant response rating, Barley (barley; Rate 200 g/ha, PREEMERGENCE): 2 | Plant response rating (0 to 10 scale), Barnyardgrass (barnyardgrass; POSTEMERGENCE, Rate 50 g/ha): 6 | Plant response rating, Barnyardgrass (barnyardgrass; POSTEMERGENCE, Rate 200 g/ha): 9 | Plant response rating, Barnyardgrass (barnyardgrass; PREEMERGENCE, Rate 50 g/ha): 2 | Plant response rating, Barnyardgrass (barnyardgrass; Rate 200 g/ha, PREEMERGENCE): 7 | Plant response rating (0 to 10 scale), Blackgrass (blackgrass; POSTEMERGENCE, Rate 50 g/ha): 3 | Plant response rating, Blackgrass (blackgrass; POSTEMERGENCE, Rate 200 g/ha): 5 | Plant response rating, Blackgrass (blackgrass; PREEMERGENCE, Rate 50 g/ha): 6 | Plant response rating, Blackgrass (blackgrass; Rate 200 g/ha, PREEMERGENCE): 7 | Plant response rating (0 to 10 scale), Chickweed (chickweed; POSTEMERGENCE, Rate 50 g/ha): 8 | Plant response rating, Chickweed (chickweed; POSTEMERGENCE, Rate 200 g/ha): 7 | Plant response rating, Chickweed (chickweed; PREEMERGENCE, Rate 50 g/ha): 2 | Plant response rating, Chickweed (chickweed; Rate 200 g/ha, PREEMERGENCE): 7 | Plant response rating (0 to 10 scale), Corn (corn; POSTEMERGENCE, Rate 50 g/ha): 5 | Plant response rating, Corn (corn; POSTEMERGENCE, Rate 200 g/ha): 6 | Plant response rating, Corn (corn; PREEMERGENCE, Rate 50 g/ha): 0 | Plant response rating, Corn (corn; Rate 200 g/ha, PREEMERGENCE): 1 | Plant response rating, Sorghum (sorghum; POSTEMERGENCE, Rate 50 g/ha): 5 | Plant response rating, Sorghum (sorghum; POSTEMERGENCE, Rate 200 g/ha): 6 | Plant response rating, Sorghum (sorghum; PREEMERGENCE, Rate 50 g/ha): 0 | Plant response rating, Sorghum (sorghum; Rate 200 g/ha, PREEMERGENCE): 2 | Plant response rating, Sugar beet (sugar beet; POSTEMERGENCE, Rate 50 g/ha): 10 | Plant response rating, Sugar beet (sugar beet; POSTEMERGENCE, Rate 200 g/ha): 10 | Plant response rating, Sugar beet (sugar beet; PREEMERGENCE, Rate 50 g/ha): 10 | Plant response rating, Sugar beet (sugar beet; Rate 200 g/ha, PREEMERGENCE): 9 | Plant response rating, Velvetleaf (velvetleaf; POSTEMERGENCE, Rate 50 g/ha): 10 | Plant response rating, Velvetleaf (velvetleaf; POSTEMERGENCE, Rate 200 g/ha): 9 | Plant response rating, Velvetleaf (velvetleaf; PREEMERGENCE, Rate 50 g/ha): 1 | Plant response rating, Velvetleaf (velvetleaf; Rate 200 g/ha, PREEMERGENCE): 10 | Plant response rating, Nutsedge (purple nutsedge; POSTEMERGENCE, Rate 50 g/ha): 1 | Plant response rating, Nutsedge (purple nutsedge; POSTEMERGENCE, Rate 200 g/ha): 3 | Plant response rating, Nutsedge (purple nutsedge; PREEMERGENCE, Rate 50 g/ha): 0 | Plant response rating, Nutsedge (purple nutsedge; Rate 200 g/ha, PREEMERGENCE): 0

Fc1cc(Cl)c(OCc2ccccc2)cc1-c1nn2c(c1Cl)CCCC2 [Compound 22]
Plant response rating (0 to 10 scale), Barley (barley; POSTEMERGENCE, Rate 50 g/ha): 4 | Plant response rating, Barley (barley; POSTEMERGENCE, Rate 200 g/ha): 5 | Plant response rating, Barley (barley; PREEMERGENCE, Rate 50 g/ha): 0 | Plant response rating, Barley (barley; Rate 200 g/ha, PREEMERGENCE): 0 | Plant response rating (0 to 10 scale), Barnyardgrass (barnyardgrass; POSTEMERGENCE, Rate 50 g/ha): 3 | Plant response rating, Barnyardgrass (barnyardgrass; POSTEMERGENCE, Rate 200 g/ha): 5 | Plant response rating, Barnyardgrass (barnyardgrass; PREEMERGENCE, Rate 50 g/ha): 2 | Plant response rating, Barnyardgrass (barnyardgrass; Rate 200 g/ha, PREEMERGENCE): 5 | Plant response rating (0 to 10 scale), Blackgrass (blackgrass; POSTEMERGENCE, Rate 50 g/ha): 3 | Plant response rating, Blackgrass (blackgrass; POSTEMERGENCE, Rate 200 g/ha): 3 | Plant response rating, Blackgrass (blackgrass; PREEMERGENCE, Rate 50 g/ha): 0 | Plant response rating, Blackgrass (blackgrass; Rate 200 g/ha, PREEMERGENCE): 5 | Plant response rating, Chickweed (chickweed; POSTEMERGENCE, Rate 200 g/ha): 7 | Plant response rating, Chickweed (chickweed; PREEMERGENCE, Rate 50 g/ha): 0 | Plant response rating, Chickweed (chickweed; Rate 200 g/ha, PREEMERGENCE): 2 | Plant response rating (0 to 10 scale), Corn (corn; POSTEMERGENCE, Rate 50 g/ha): 3 | Plant response rating, Corn (corn; POSTEMERGENCE, Rate 200 g/ha): 4 | Plant response rating, Corn (corn; PREEMERGENCE, Rate 50 g/ha): 2 | Plant response rating, Corn (corn; Rate 200 g/ha, PREEMERGENCE): 4 | Plant response rating, Sorghum (sorghum; POSTEMERGENCE, Rate 50 g/ha): 5 | Plant response rating, Sorghum (sorghum; POSTEMERGENCE, Rate 200 g/ha): 5 | Plant response rating, Sorghum (sorghum; PREEMERGENCE, Rate 50 g/ha): 0 | Plant response rating, Sorghum (sorghum; Rate 200 g/ha, PREEMERGENCE): 3 | Plant response rating, Sugar beet (sugar beet; POSTEMERGENCE, Rate 50 g/ha): 9 | Plant response rating, Sugar beet (sugar beet; POSTEMERGENCE, Rate 200 g/ha): 6 | Plant response rating, Sugar beet (sugar beet; PREEMERGENCE, Rate 50 g/ha): 1 | Plant response rating, Sugar beet (sugar beet; Rate 200 g/ha, PREEMERGENCE): 9 | Plant response rating, Velvetleaf (velvetleaf; POSTEMERGENCE, Rate 50 g/ha): 6 | Plant response rating, Velvetleaf (velvetleaf; POSTEMERGENCE, Rate 200 g/ha): 9 | Plant response rating, Velvetleaf (velvetleaf; PREEMERGENCE, Rate 50 g/ha): 4 | Plant response rating, Velvetleaf (velvetleaf; Rate 200 g/ha, PREEMERGENCE): 5 | Plant response rating, Nutsedge (purple nutsedge; POSTEMERGENCE, Rate 50 g/ha): 2 | Plant response rating, Nutsedge (purple nutsedge; POSTEMERGENCE, Rate 200 g/ha): 2 | Plant response rating, Nutsedge (purple nutsedge; PREEMERGENCE, Rate 50 g/ha): 0 | Plant response rating, Nutsedge (purple nutsedge; Rate 200 g/ha, PREEMERGENCE): 0
